Patent US10941152B2, “Pyrazole compounds as modulators of FSHR and uses thereof” (TOCOPHERX, INC., priority 2014, dated 2021)

What was measured:
[1] = biological target: T1, FSHR (Homo sapiens, UniProt P23945); assay: EC50 of cyclic AMP production in CHO FSHR cells + EC20 FSH (Assay A); assay type: cell-based; details: cyclic AMP production in CHO FSHR cells + EC20 FSH (0.265 pM), HTRF
T1 construct: expressed in transfected cells; host or cells: CHO (Cho-FSHR-LUC-1-1-43)
T1 sequence (P23945 18-695): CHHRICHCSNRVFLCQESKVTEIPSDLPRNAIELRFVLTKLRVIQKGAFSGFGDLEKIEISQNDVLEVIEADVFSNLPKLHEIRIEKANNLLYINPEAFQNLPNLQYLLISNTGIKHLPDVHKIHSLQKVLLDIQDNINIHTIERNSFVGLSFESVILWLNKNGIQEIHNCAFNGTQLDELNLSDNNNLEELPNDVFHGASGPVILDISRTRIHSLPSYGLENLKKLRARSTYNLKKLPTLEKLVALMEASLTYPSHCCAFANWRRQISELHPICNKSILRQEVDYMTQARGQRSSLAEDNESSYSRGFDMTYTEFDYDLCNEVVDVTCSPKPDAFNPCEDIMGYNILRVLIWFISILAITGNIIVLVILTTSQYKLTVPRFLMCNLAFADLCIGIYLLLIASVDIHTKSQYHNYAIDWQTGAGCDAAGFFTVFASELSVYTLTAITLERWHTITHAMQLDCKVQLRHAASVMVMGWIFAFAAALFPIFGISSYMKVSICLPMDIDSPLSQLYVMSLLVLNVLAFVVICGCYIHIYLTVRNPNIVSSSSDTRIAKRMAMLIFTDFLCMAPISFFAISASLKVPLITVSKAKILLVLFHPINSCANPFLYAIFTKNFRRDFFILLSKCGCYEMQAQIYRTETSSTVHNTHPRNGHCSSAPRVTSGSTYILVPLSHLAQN
In short: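 CHO cells expressing FSHR, stimulated 1 h at 37° C with compound plus EC20 FSH (0.265 pM final) and 200 μM IBMX. cAMP measured by HTRF (665/620 nm ratio) after 1 h at room temperature; effect expressed relative to maximum response of FSH standard.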

[2] = biological target: T2, follicle-stimulating hormone (FSH) receptor (Rattus norvegicus, UniProt P20395); assay: Rat granulosa EC50 FSH (Assay B); assay type: cell-based
T2 construct: endogenous in cells; host or cells: rat granulosa cells
T2 sequence (P20395 18-692): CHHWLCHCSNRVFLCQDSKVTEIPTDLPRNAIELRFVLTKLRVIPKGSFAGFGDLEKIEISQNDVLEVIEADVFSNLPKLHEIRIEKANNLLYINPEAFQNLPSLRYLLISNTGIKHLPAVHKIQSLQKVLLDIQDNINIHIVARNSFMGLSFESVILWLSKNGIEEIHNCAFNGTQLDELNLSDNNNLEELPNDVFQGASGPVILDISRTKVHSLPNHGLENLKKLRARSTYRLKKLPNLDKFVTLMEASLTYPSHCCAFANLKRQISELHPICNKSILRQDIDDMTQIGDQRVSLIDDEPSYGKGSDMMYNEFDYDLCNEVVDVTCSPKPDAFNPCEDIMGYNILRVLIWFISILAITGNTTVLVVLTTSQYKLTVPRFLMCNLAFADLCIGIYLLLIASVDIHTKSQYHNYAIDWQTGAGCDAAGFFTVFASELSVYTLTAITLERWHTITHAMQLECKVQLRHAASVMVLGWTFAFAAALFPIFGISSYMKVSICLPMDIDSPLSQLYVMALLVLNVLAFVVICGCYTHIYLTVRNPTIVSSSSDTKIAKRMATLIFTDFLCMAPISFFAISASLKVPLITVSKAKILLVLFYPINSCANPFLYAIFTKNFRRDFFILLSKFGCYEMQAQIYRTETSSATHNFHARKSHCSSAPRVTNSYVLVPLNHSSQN
Method: Example 25. Rat granulosa EC50 FSH (Assay B)
The assay was performed pursuant to the teaching of Yanofsky et al. (2006) Allosteric activation of the follicle-stimulating hormone (FSH) receptor by selective, nonpeptide agonists (JBC 281(19): 13226-13233, which is incorporated by reference in the disclosure of the invention).

| EC50 [1] | EC50 [2] | Compound |
| --- | --- | --- |
| < 10 nM | 10 to 100 nM | COc1cc2c(cc1-c1cnn(CCO)c1)-c1c(c(C(=O)N3CCOCC3(C)C)nn1-c1cc(F)cc(Cl)c1)CO2 [Compound 78, (1-(3-chloro-5-fluorophenyl)-8-(1-(2-hydroxyethyl)-1H-pyrazol-4-yl)-7-methoxy-1,4-dihydrochromeno[4,3-c]pyrazol-3-yl)(3,3-dimethylmorpholino)methanone] |
| 10 to 100 nM | 101 to 500 nM | COc1cc(Cl)cc(-n2nc(C(=O)N(C)C(C)(C)C)c3c2-c2cc(-c4cnn(CCO)c4)c(OC)cc2OC3)c1 [Compound 79, N-tert-butyl-1-(3-chloro-5-methoxyphenyl)-8-(1-(2-hydroxyethyl)-1H-pyrazol-4-yl)-7-methoxy-N-methyl-1,4-dihydrochromeno[4,3-c]pyrazole-3-carboxamide] |
| < 10 nM | 101 to 500 nM | COc1cc2c(cc1-c1cc(F)cc(CO)c1)-c1c(c(C(=O)N(C)C(C)(C)C)nn1-c1cc(Cl)cc(Cl)c1)CO2 [Compound 80, N-tert-butyl-1-(3,5-dichlorophenyl)-8-(3-fluoro-5-(hydroxymethyl)phenyl)-7-methoxy-N-methyl-1,4-dihydrochromeno[4,3-c]pyrazole-3-carboxamide] |
| 10 to 100 nM | 101 to 500 nM | COc1cc2c(cc1-c1cnn(CC(=O)O)c1)-c1c(c(C(=O)N(C)C(C)(C)C)nn1-c1cc(Cl)cc(Cl)c1)CO2 [Compound 81, 2-(4-(3-(tert-butyl(methyl)carbamoyl)-1-(3,5-dichlorophenyl)-7-methoxy-1,4-dihydrochromeno[4,3-c]pyrazol-8-yl)-1H-pyrazol-1-yl)acetic acid] |
| < 10 nM | > 500 nM | COc1cc2c(cc1-c1cc(C(=O)O)ccc1F)-c1c(c(C(=O)N(C)C(C)(C)C)nn1-c1cc(Cl)cc(Cl)c1)CO2 [Compound 82, 3-(3-(tert-butyl(methyl)carbamoyl)-1-(3,5-dichlorophenyl)-7-methoxy-1,4-dihydrochromeno[4,3-c]pyrazol-8-yl)-4-fluorobenzoic acid] |
| < 10 nM | 101 to 500 nM | COc1cc2c(cc1-c1cc(F)cc(C(=O)O)c1)-c1c(c(C(=O)N(C)C(C)(C)C)nn1-c1cc(Cl)cc(Cl)c1)CO2 [Compound 83, 3-(3-(tert-butyl(methyl)carbamoyl)-1-(3,5-dichlorophenyl)-7-methoxy-1,4-dihydrochromeno[4,3-c]pyrazol-8-yl)-5-fluorobenzoic acid] |
| 10 to 100 nM | 101 to 500 nM | COc1cc2c(cc1-c1cnn(CC(=O)O)c1)-c1c(c(C(=O)N3CCOCC3(C)C)nn1-c1cc(F)cc(Cl)c1)CO2 [Compound 84, 2-(4-(1-(3-chloro-5-fluorophenyl)-3-(3,3-dimethylmorpholine-4-carbonyl)-7-methoxy-1,4-dihydrochromeno[4,3-c]pyrazol-8-yl)-1H-pyrazol-1-yl)acetic acid] |
| 10 to 100 nM | > 500 nM | COc1cc(Cl)cc(-n2nc(C(=O)N(C)C(C)(C)C)c3c2-c2cc(-c4cnn(CC(=O)O)c4)c(OC)cc2OC3)c1 [Compound 85, 2-(4-(3-(tert-butyl(methyl)carbamoyl)-1-(3-chloro-5-methoxyphenyl)-7-methoxy-1,4-dihydrochromeno[4,3-c]pyrazol-8-yl)-1H-pyrazol-1-yl)acetic acid] |
| < 10 nM | 101 to 500 nM | COc1cc(Cl)cc(-n2nc(C(=O)N3CCOCC3(C)C)c3c2-c2cc(-c4cnn(CC(=O)O)c4)c(OC)cc2OC3)c1 [Compound 86, 2-(4-(1-(3-chloro-5-methoxyphenyl)-3-(3,3-dimethylmorpholine-4-carbonyl)-7-methoxy-1,4-dihydrochromeno[4,3-c]pyrazol-8-yl)-1H-pyrazol-1-yl)acetic acid] |
| 10 to 100 nM | 101 to 500 nM | COc1cc2c(cc1-c1cnn(CC(=O)O)c1)-c1c(c(C(=O)N(C)C(C)(C)C)nn1-c1cc(F)cc(F)c1)CO2 [Compound 87, 2-(4-(3-(tert-butyl(methyl)carbamoyl)-1-(3,5-difluorophenyl)-7-methoxy-1,4-dihydrochromeno[4,3-c]pyrazol-8-yl)-1H-pyrazol-1-yl)acetic acid] |
| 10 to 100 nM | 101 to 500 nM | COc1cc2c(cc1-c1cnn(CC(=O)O)c1)-c1c(c(C(=O)N3CCOCC3(C)C)nn1-c1cc(F)cc(F)c1)CO2 [Compound 88, 2-(4-(1-(3,5-difluorophenyl)-3-(3,3-dimethylmorpholine-4-carbonyl)-7-methoxy-1,4-dihydrochromeno[4,3-c]pyrazol-8-yl)-1H-pyrazol-1-yl)acetic acid] |
| < 10 nM | 101 to 500 nM | COc1cc(F)cc(-n2nc(C(=O)N3CCOCC3(C)C)c3c2-c2cc(-c4cnn(CC(=O)O)c4)c(OC)cc2OC3)c1 [Compound 89, 2-(4-(3-(3,3-dimethylmorpholine-4-carbonyl)-1-(3-fluoro-5-methoxyphenyl)-7-methoxy-1,4-dihydrochromeno[4,3-c]pyrazol-8-yl)-1H-pyrazol-1-yl)acetic acid] |
| < 10 nM | 101 to 500 nM | COc1cc2c(cc1-c1cnn(CC(=O)N(C)C)c1)-c1c(c(C(=O)N(C)C(C)(C)C)nn1-c1cc(Cl)cc(Cl)c1)CO2 [Compound 90, N-tert-butyl-1-(3,5-dichlorophenyl)-8-(1-(2-(dimethylamino)-2-oxoethyl)-1H-pyrazol-4-yl)-7-methoxy-N-methyl-1,4-dihydrochromeno[4,3-c]pyrazole-3-carboxamide] |
| < 10 nM | 10 to 100 nM | CNC(=O)Cn1cc(-c2cc3c(cc2OC)OCc2c(C(=O)N(C)C(C)(C)C)nn(-c4cc(Cl)cc(Cl)c4)c2-3)cn1 [Compound 91, N-tert-butyl-1-(3,5-dichlorophenyl)-7-methoxy-N-methyl-8-(1-(2-(methylamino)-2-oxoethyl)-1H-pyrazol-4-yl)-1,4-dihydrochromeno[4,3-c]pyrazole-3-carboxamide] |
| < 10 nM | 10 to 100 nM | COc1cc2c(cc1-c1cnn(CC(=O)N(C)C)c1)-c1c(c(C(=O)N3CCOCC3(C)C)nn1-c1cc(Cl)cc(Cl)c1)CO2 [Compound 92, 2-(4-(1-(3,5-dichlorophenyl)-3-(3,3-dimethylmorpholine-4-carbonyl)-7-methoxy-1,4-dihydrochromeno[4,3-c]pyrazol-8-yl)-1H-pyrazol-1-yl)-N,N-dimethylacetamide] |
| < 10 nM | 10 to 100 nM | COc1cc2c(cc1-c1cc(C(N)=O)ccc1F)-c1c(c(C(=O)N(C)C(C)(C)C)nn1-c1cc(Cl)cc(Cl)c1)CO2 [Compound 93, N-tert-butyl-8-(5-carbamoyl-2-fluorophenyl)-1-(3,5-dichlorophenyl)-7-methoxy-N-methyl-1,4-dihydrochromeno[4,3-c]pyrazole-3-carboxamide] |
| < 10 nM | < 10 nM | CNC(=O)c1cncc(-c2cc3c(cc2OC)OCc2c(C(=O)N4CCOCC4(C)C)nn(-c4cc(Cl)cc(Cl)c4)c2-3)c1 [Compound 94, 5-(1-(3,5-dichlorophenyl)-3-(3,3-dimethylmorpholine-4-carbonyl)-7-methoxy-1,4-dihydrochromeno[4,3-c]pyrazol-8-yl)-N-methylnicotinamide] |
| 10 to 100 nM | 10 to 100 nM | COc1cc2c(cc1-c1cnn(CC(=O)N3CCC3)c1)-c1c(c(C(=O)N(C)C(C)(C)C)nn1-c1cc(Cl)cc(Cl)c1)CO2 [Compound 95, 8-(1-(2-(azetidin-1-yl)-2-oxoethyl)-1H-pyrazol-4-yl)-N-tert-butyl-1-(3,5-dichlorophenyl)-7-methoxy-N-methyl-1,4-dihydrochromeno[4,3-c]pyrazole-3-carboxamide] |
